Among the data in PubChem BioAssay AID504843 (Broad Institute, 2011) are AC50 values, retold here.

The term AC50 denotes the concentration at which the activity in the assay is half-maximal.

Active and inactive are the calls of the source. No rule for the calls is given here. Where only a bound is given, the exact number is not on record here.

The experiment deals with bacterial growth, BacTiter-Glo ATP luminescence. Put plainly: antibacterial activity by ATP level – BacTiter-Glo luminescence, cherry-picked samples, counter-screen, dose response (AID 504843).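 Also: growth measured after 8 h incubation at 30 °C.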 On the technique in general: The purpose of a counterscreen is to sort out artefacts and off-target activity.

In the case of `CO[C@H]1C=CO[C@@]2(C)Oc3c(C)c(O)c4c(O)c(c(C=NN5CCN(C)CC5)c(O)c4c3C2=O)NC(=O)C(C)=CC=C[C@H](C)[C@H](O)[C@@H](C)[C@@H](O)[C@@H](C)[C@H](OC(C)=O)[C@@H]1C`, the AC50 is > 15 µM (inactive).
